Laboratory results as given in US20210186924A1, “COMPOSITION FOR PROMOTING URIC ACID EXCRETION, COMPOSITION FOR INHIBITING URAT1 AND COMPOSITION FOR LOWERING BLOOD URIC ACID LEVEL” (SUNTORY HOLDINGS LIMITED, priority 2018, published 2021).
In brackets after ≈: the same amount, converted by molar mass.

What was measured:
human URAT1 = target: T1, human URAT1 (Homo sapiens, UniProt Q96S37); test: URAT1 inhibition: 14C-uric acid uptake in MDCK2 cells stably expressing human URAT1; format: cell-based; details: for URAT1 inhibition rate (result in words, FIGS. 1 to 4): test substance 1 to 200 μg/mL, uric acid uptake vs DMSO control; for IC50: read-out: IC50 (test substance concentration at which URAT1 was inhibited 50%) (converted)
T1 construct: expressed in transfected cells
T1 sequence (Q96S37 1-553): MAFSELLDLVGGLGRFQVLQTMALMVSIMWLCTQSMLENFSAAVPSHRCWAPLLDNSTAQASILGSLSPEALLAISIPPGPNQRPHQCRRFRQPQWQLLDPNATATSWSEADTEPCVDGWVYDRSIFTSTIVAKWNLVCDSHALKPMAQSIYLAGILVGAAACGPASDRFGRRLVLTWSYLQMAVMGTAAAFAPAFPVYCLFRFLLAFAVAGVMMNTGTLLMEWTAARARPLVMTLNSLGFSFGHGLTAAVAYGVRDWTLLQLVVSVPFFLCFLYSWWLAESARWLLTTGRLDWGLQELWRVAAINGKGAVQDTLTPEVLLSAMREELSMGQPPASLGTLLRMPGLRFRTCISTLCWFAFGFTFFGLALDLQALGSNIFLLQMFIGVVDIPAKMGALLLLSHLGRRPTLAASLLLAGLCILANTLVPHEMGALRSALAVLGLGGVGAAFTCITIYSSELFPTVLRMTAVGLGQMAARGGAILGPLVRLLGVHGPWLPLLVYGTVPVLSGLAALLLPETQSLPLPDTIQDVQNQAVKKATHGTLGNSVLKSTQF
Procedure: Each test substance was dissolved in dimethyl sulfoxide (DMSO) and added to HBSS to give a test substance concentration of 1, 5, 10, 15, 20, 40, 60, 80, 100, or 200 μg/mL. […] Uric acid was added to HBSS to give a concentration of 20 μM. Subsequently, the cells were washed again with HBSS, and then dissolved in a 0.1 N sodium hydroxide aqueous solution. The radiation dose of 14 C in the solution was measured by a liquid scintillation counter, and the uptake amount of uric acid into the cells was measured. A positive control was provided by adding benzbromarone at 30 μM. A test substance non-addition group as a control was provided by adding only DMSO to HBSS (DMSO concentration: 1%). The tests were performed with n=3 for the control and for the test substances at each concentration. […] The uptake amount of uric acid was determined with an average of n=3. The calculation formula of the URAT1 inhibition rate (%) is as follows. The control group is the test substance non-addition group.
Inhibition rate (%)=100×{((uptake amount of uric acid in control group)−(uptake amount of uric acid in test substance addition group))/uptake amount of uric acid in control group}

[1] = high temperature of 100° C.; cited from earlier work
[2] = MDCK2 cells expressing human URAT1, 14C-uric acid 20 μM, 10 minutes, n=3

Structure (SMILES) | URAT1 inhibition rate (result in words, FIGS. 1 to 4) (human URAT1) | IC50 (test substance concentration at which URAT1 was inhibited 50%) (human URAT1; [2]) | IC50 (human URAT1; [2]) | Thermal stability [1] | inhibition at 30 µM (human URAT1; MDCK2, read-out: URAT1 inhibition rate)
COc1cc(O)c(CC=C(C)C)c(O)c1C(=O)/C=C/c1ccc(O)cc1 [xanthohumol, reference compound] | did not show a significant increase in the inhibition rate | – | – | – | –
COc1ccc([C@@H]2CC(=O)c3c(O)cc(O[C@@H]4O[C@H](CO[C@@H]5O[C@@H](C)[C@H](O)[C@@H](O)[C@H]5O)[C@@H](O)[C@H](O)[C@H]4O)cc3O2)cc1O [Hesperidin, hesperidin] | significant increase in the inhibition rate | 16.97 mg/L (≈ 27.8 µM) | – | – | –
COc1cc(O)c(CC=C(C)C)c2c1C(=O)CC(c1ccc(O)cc1)O2 (centres unmarked) [Isoxanthohumol, isoxanthohumol] | significant increase in the inhibition rate | – | 25.1 µM | stable even at a high temperature of 100 °C | –
O=C1C[C@@H](c2ccc(O)cc2)Oc2cc(O)cc(O)c21 [Naringenin, naringenin] | significant increase in the inhibition rate | – | 41.9 µM | – | –
O=C1C[C@@H](c2ccc(O)c(O)c2)Oc2cc(O)cc(O)c21 [Eriodictyol, eriodictyol] | significant increase in the inhibition rate | – | 43.5 µM | – | –
CCc1oc2ccccc2c1C(=O)c1cc(Br)c(O)c(Br)c1 [benzbromarone, reference compound] | – | – | – | – | 99 to 100%
